Measurements as given in ChEMBL document CHEMBL2440076, “New triarylpyrazoles as broad-spectrum anticancer agents: design, synthesis, and biological evaluation” (Eur J Med Chem, 2013).

How the values were obtained:
LOX IMVI [1] = assay: Growth inhibition of human LOXIMVI cells assessed as cell growth at 10 uM after 48 hrs by sulforhodamine B assay; assay type: functional; conditions: read-out: Activity
OVCAR-5 = assay: Growth inhibition of human OVCAR5 cells after 48 hrs by sulforhodamine B assay; assay type: functional; conditions: OVCAR-5, 48 h
OVCAR-4 = assay: Growth inhibition of human OVCAR4 cells after 48 hrs by sulforhodamine B assay; assay type: functional; conditions: OVCAR-4, 48 h
ACHN = assay: Growth inhibition of human ACHN cells assessed as cell growth at 10 uM after 48 hrs by sulforhodamine B assay; assay type: functional; conditions: read-out: Activity
SK-MEL-2 = assay: Growth inhibition of human SK-MEL-2 cells assessed as cell growth at 10 uM after 48 hrs by sulforhodamine B assay; assay type: functional; conditions: SK-MEL-2, 48 h, read-out: Activity
Malme-3M [2] = assay: Growth inhibition of human MALME-3M cells after 48 hrs by sulforhodamine B assay; assay type: functional
UACC-62 = assay: Growth inhibition of human UACC62 cells assessed as cell growth at 10 uM after 48 hrs by sulforhodamine B assay; assay type: functional; conditions: UACC-62, 48 h, read-out: Activity
HCT-116 = assay: Growth inhibition of human HCT116 cells assessed as cell growth at 10 uM after 48 hrs by sulforhodamine B assay; assay type: functional; conditions: HCT-116, 48 h, read-out: Activity
NCI-H522 = assay: Growth inhibition of human NCI-H522 cells after 48 hrs by sulforhodamine B assay; assay type: functional; conditions: NCI-H522, 48 h
SK-OV-3 = assay: Growth inhibition of human SKOV3 cells after 48 hrs by sulforhodamine B assay; assay type: functional; conditions: SK-OV-3, 48 h
MCF7 = assay: Growth inhibition of human MCF7 cells after 48 hrs by sulforhodamine B assay; assay type: functional; conditions: MCF7, 48 h
M14 = assay: Growth inhibition of human M14 cells after 48 hrs by sulforhodamine B assay; assay type: functional; conditions: M14, 48 h
Malme-3M [3] = assay: Growth inhibition of human MALME-3M cells assessed as cell growth at 10 uM after 48 hrs by sulforhodamine B assay; assay type: functional; conditions: read-out: Activity
786-0 = assay: Growth inhibition of human 786-0 cells assessed as cell growth at 10 uM after 48 hrs by sulforhodamine B assay; assay type: functional; conditions: 786-0, 48 h, read-out: Activity
IGROV-1 [4] = assay: Growth inhibition of human IGROV1 cells assessed as cell growth at 10 uM after 48 hrs by sulforhodamine B assay; assay type: functional; conditions: IGROV-1, 48 h, read-out: Activity
MDA-MB-435 = assay: Growth inhibition of human MDA-MB-435 cells assessed as cell growth at 10 uM after 48 hrs by sulforhodamine B assay; assay type: functional; conditions: MDA-MB-435, 48 h, read-out: Activity
SF-295 = assay: Growth inhibition of human SF295 cells after 48 hrs by sulforhodamine B assay; assay type: functional, cell-based; conditions: SF-295, 48 h
SW-620 = assay: Growth inhibition of human SW620 cells assessed as cell growth at 10 uM after 48 hrs by sulforhodamine B assay; assay type: functional; conditions: SW-620, 48 h, read-out: Activity
PC-3 = assay: Growth inhibition of human PC3 cells after 48 hrs by sulforhodamine B assay; assay type: functional, cell-based; conditions: PC-3, 48 h
NCI-H226 = assay: Growth inhibition of human NCI-H226 cells after 48 hrs by sulforhodamine B assay; assay type: functional; conditions: NCI-H226, 48 h
SF-268 [5] = assay: Growth inhibition of human SF268 cells assessed as cell growth at 10 uM after 48 hrs by sulforhodamine B assay; assay type: functional; conditions: SF-268, 48 h, read-out: Activity
CCRF-CEM = assay: Growth inhibition of human CCRF-CEM cells after 48 hrs by sulforhodamine B assay; assay type: functional
SN12C = assay: Growth inhibition of human SN12C cells after 48 hrs by sulforhodamine B assay; assay type: functional
[6] = Growth inhibition of human Hs 578T cells after 48 hrs by sulforhodamine B assay; assay type: functional
UO-31 = assay: Growth inhibition of human UO31 cells assessed as cell growth at 10 uM after 48 hrs by sulforhodamine B assay; assay type: functional; conditions: UO-31, 48 h, read-out: Activity
LOX IMVI [7] = assay: Growth inhibition of human LOXIMVI cells after 48 hrs by sulforhodamine B assay; assay type: functional
NCI-H460 = assay: Growth inhibition of human NCI-H460 cells after 48 hrs by sulforhodamine B assay; assay type: functional; conditions: NCI-H460, 48 h
NCI-H23 = assay: Growth inhibition of human NCI-H23 cells assessed as cell growth at 10 uM after 48 hrs by sulforhodamine B assay; assay type: functional; conditions: NCI-H23, 48 h, read-out: Activity
IGROV-1 [8] = assay: Growth inhibition of human IGROV1 cells after 48 hrs by sulforhodamine B assay; assay type: functional; conditions: IGROV-1, 48 h
SNB-75 = assay: Growth inhibition of human SNB75 cells after 48 hrs by sulforhodamine B assay; assay type: functional; conditions: SNB-75, 48 h
A498 = assay: Growth inhibition of human A498 cells after 48 hrs by sulforhodamine B assay; assay type: functional, cell-based; conditions: A498, 48 h
HOP-62 = assay: Growth inhibition of human HOP62 cells after 48 hrs by sulforhodamine B assay; assay type: functional; conditions: HOP-62, 48 h
SF-268 [9] = assay: Growth inhibition of human SF268 cells after 48 hrs by sulforhodamine B assay; assay type: functional; conditions: SF-268, 48 h
HOP-92 = assay: Growth inhibition of human HOP92 cells after 48 hrs by sulforhodamine B assay; assay type: functional, cell-based; conditions: HOP-92, 48 h
[10] = read-out: LC50 (the source's name)

## O=C(Nc1cccc(-n2cc(-c3ccncc3)c(-c3ccc(Cl)c(O)c3)n2)c1)c1ccc(N2CCOCC2)c(C(F)(F)F)c1
LOX IMVI [1]
  growth at 10 µM: 9.98%
OVCAR-5
  GI50: > 50 µM
  LC50 (concentration killing 50% of cells): > 50 µM
  TGI: > 50 µM
OVCAR-4
  GI50: 39.2 µM
  LC50 (concentration killing 50% of cells): > 50 µM
  TGI: > 50 µM
ACHN
  growth at 10 µM: 36.6%
SK-MEL-2
  growth at 10 µM: 17.6%
Malme-3M [2]
  GI50: 1.25 µM
  LC50 (concentration killing 50% of starting cells): > 50 µM
  TGI: 4.08 µM
UACC-62
  growth at 10 µM: 49.2%
HCT-116
  growth at 10 µM: 29.6%
NCI-H522
  GI50: 2.31 µM
  LC50 (concentration killing 50% of cells): > 50 µM
  TGI: 44 µM
SK-OV-3
  GI50: 20 µM
  TGI: > 50 µM
SK-OV-3; [10]
  CC50: > 50 µM
MCF7
  GI50: 2.81 µM
  LC50: > 50 µM
  TGI: > 50 µM
M14
  GI50: 1.63 µM
  LC50 (concentration killing 50% of cells): 49.6 µM
  TGI: 9.1 µM
Malme-3M [3]
  growth at 10 µM: 10.7%
786-0
  growth at 10 µM: 59.6%
IGROV-1 [4]
  growth at 10 µM: 96.8%
MDA-MB-435
  growth at 10 µM: 35.2%
SF-295
  GI50: 1.71 µM
  IC50: 1.71 µM
  TGI: 7.55 µM
SF-295; [10]
  CC50: 37 µM
SW-620
  growth at 10 µM: 6.29%
PC-3
  GI50: 2.15 µM
  IC50: 2.15 µM
  TGI: > 50 µM
PC-3; [10]
  CC50: > 50 µM
NCI-H226
  GI50: > 50 µM
  TGI: > 50 µM
NCI-H226; [10]
  CC50: > 50 µM
SF-268 [5]
  growth at 10 µM: 55.5%
CCRF-CEM
  GI50: 1.82 µM
  LC50: > 50 µM
  TGI: > 50 µM
SN12C
  GI50: 22 µM
  TGI: > 50 µM
SN12C; [10]
  CC50: > 50 µM
[6]
  GI50: 1.85 µM
  TGI: > 50 µM
[6]; [10]
  CC50: > 50 µM
UO-31
  growth at 10 µM: 36.9%
LOX IMVI [7]
  GI50: 1.64 µM
  LC50: 44.8 µM
  TGI: 7.3 µM
NCI-H460
  GI50: 1.72 µM
  LC50: > 50 µM
  TGI: 14.8 µM
NCI-H23
  growth at 10 µM: 61.3%
IGROV-1 [8]
  GI50: 9.42 µM
  LC50 (concentration killing 50% of cells): > 50 µM
  TGI: > 50 µM
SNB-75
  GI50: 1.3 µM
  LC50 (lethal concentration, 50% net cell kill): > 50 µM
  TGI: > 50 µM
A498
  GI50: 15.5 µM
  IC50: 15.5 µM
  TGI: > 50 µM
A498; [10]
  CC50: > 50 µM
HOP-62
  GI50: 9.38 µM
  TGI: > 50 µM
HOP-62; [10]
  CC50: > 50 µM
SF-268 [9]
  GI50: 5.58 µM
  TGI: > 50 µM
SF-268 [9]; [10]
  CC50: > 50 µM
HOP-92
  GI50: 0.555 µM
  IC50: 0.56 µM
  LC50: > 50 µM
  TGI: 3.81 µM
